Test results: US12077503B2, “Substituted cyclic amides and their use as herbicides” (FMC CORPORATION, priority 2015, dated 2024)

Assays:
Format in all cases: in vivo
[1] = test system: ducksalad (Heteranthera limosa); test: Test B flooded paddy test; conditions: Heteranthera limosa, 250 g ai/ha, Flood; 0 to 100 scale where 0 is no effect and 100 is complete control; read-out: Ducksalad plant response rating
Method in brief: (§1)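 2-leaf plants; pots flooded 3 cm over soil; cpd added to paddy water; depth held; greenhouse 13–15 d; visual rating vs controls, 0 = no effect, 100 = complete control.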

[2] = test system: barnyardgrass (Echinochloa crus-galli); test: Test B flooded paddy test; conditions: Echinochloa crus-galli, 250 g ai/ha, Flood; 0 to 100 scale where 0 is no effect and 100 is complete control; read-out: Barnyardgrass plant response rating
Method in brief: as §1

rice (Oryra sativa) = test: Test B flooded paddy test; conditions: Oryza sativa, 250 g ai/ha, Flood; 0 to 100 scale where 0 is no effect and 100 is complete control; read-out: Rice plant response rating
Method in brief: as §1

[3] = test system: sedge, umbrella (small-flower umbrella sedge, Cyperus difformis); test: Test B flooded paddy test; conditions: Cyperus difformis, 250 g ai/ha, Flood; 0 to 100 scale where 0 is no effect and 100 is complete control; read-out: Sedge, Umbrella plant response rating
Method in brief: as §1

[4] = test system: ryegrass, Italian (Italian ryegrass, Lolium multiflorum); test: Test A postemergence; conditions: Lolium multiflorum, post-emergence, 240 h
Method in brief: (§2)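 Seeds sprayed preemergence with a directed soil spray, or plants at 2 to 10 cm height and one- to two-leaf stage sprayed postemergence, with test chemicals in a non-phytotoxic solvent mixture containing surfactant, in loam soil–sand blend. Injury rated visually against untreated controls after about 10 d in greenhouse, 0 (no effect) to 100 (complete control).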

[5] = test system: barnyardgrass (Echinochloa crus-galli); test: Test A postemergence; conditions: Echinochloa crus-galli, post-emergence, 240 h
Method in brief: as §2

corn (Zea mays) = test: Test A postemergence; conditions: Zea mays, post-emergence, 240 h
Method in brief: as §2

[6] = test system: giant foxtail (Setaria faberii); test: Test A postemergence; conditions: Setaria faberi, post-emergence, 240 h
Method in brief: as §2

[7] = test system: pigweed (Amaranthus retroflexus); test: Test A postemergence; conditions: Amaranthus retroflexus, post-emergence, 240 h
Method in brief: as §2

Kochia (Kochia scoparia) [8] = test: Test A postemergence; conditions: Bassia scoparia, post-emergence, 240 h
Method in brief: as §2

[9] = test system: blackgrass (Alopecurus myosuroides); test: Test A postemergence; conditions: Alopecurus myosuroides, post-emergence, 240 h
Method in brief: as §2

[10] = test system: ragweed (common ragweed, Ambrosia elatior); test: Test A postemergence; conditions: Ambrosia artemisiifolia, post-emergence, 240 h
Method in brief: as §2

[11] = test system: wheat (Triticum aestivum); test: Test A postemergence; conditions: Triticum aestivum, post-emergence, 240 h
Method in brief: as §2

[12] = test system: ryegrass, Italian (Italian ryegrass, Lolium multiflorum); test: Test A preemergence; conditions: Lolium multiflorum, pre-emergence, 240 h, 0 to 100 scale where 0 is no effect and 100 is complete control, read-out: Ryegrass, Italian plant response rating
Method in brief: as §2

[13] = test system: barnyardgrass (Echinochloa crus-galli); test: Test A preemergence; conditions: Echinochloa crus-galli, pre-emergence, 240 h, 0 to 100 scale where 0 is no effect and 100 is complete control, read-out: Barnyardgrass plant response rating
Method in brief: as §2

[14] = test system: giant foxtail (Setaria faberii); test: Test A preemergence; conditions: Setaria faberi, pre-emergence, 240 h, 0 to 100 scale where 0 is no effect and 100 is complete control, read-out: Foxtail, Giant plant response rating
Method in brief: as §2

[15] = test system: pigweed (Amaranthus retroflexus); test: Test A preemergence; conditions: Amaranthus retroflexus, pre-emergence, 240 h, 0 to 100 scale where 0 is no effect and 100 is complete control, read-out: Pigweed plant response rating
Kochia (Kochia scoparia) [16] = test: Test A preemergence; conditions: Bassia scoparia, pre-emergence, 240 h, 0 to 100 scale where 0 is no effect and 100 is complete control, read-out: Kochia plant response rating
Method in brief: as §2

[17] = test system: ragweed (common ragweed, Ambrosia elatior); test: Test A preemergence; conditions: Ambrosia artemisiifolia, pre-emergence, 240 h, 0 to 100 scale where 0 is no effect and 100 is complete control, read-out: Ragweed plant response rating
Method in brief: as §2

[18] = 125 g ai/ha, preemergence, approx. 10 d

Question: Which pest or weed control at 250 g/ha [1] does the source give for `CC(C)Oc1cc([C@H]2CN(C)C(=O)[C@@H]2C(=O)Nc2ccccc2F)ccc1F` [Compound 1074] here?
Answer: The pest or weed control at 250 g/ha was 100%.

Question: And the pest or weed control at 250 g/ha [2]?
Answer: Its pest or weed control at 250 g/ha is 75%.

Question: And the pest or weed control at 250 g/ha (rice (Oryra sativa))?
Answer: Its pest or weed control at 250 g/ha is 35%.

Question: And the pest or weed control at 250 g/ha [3]?
Answer: The pest or weed control at 250 g/ha was 0%.

Question: And the pest or weed control at 125 g/ha ([4]; 125 g ai/ha, postemergence, visual injury on 0 to 100 scale (0 no effect, 100 complete control), approx. 10 d, read-out: Ryegrass, Italian plant response rating)?
Answer: The pest or weed control at 125 g/ha was 30%.

Question: What about the pest or weed control at 31 g/ha ([4]; Postemergence, 31 g ai/ha, visual injury after approx. 10 d, 0 to 100 scale, 0 no effect, 100 complete control, read-out: Plant response rating, Ryegrass, Italian) of the same compound?
Answer: The pest or weed control at 31 g/ha was 20%.

Question: And the pest or weed control at 125 g/ha ([5]; 125 g ai/ha, postemergence, visual injury on 0 to 100 scale (0 no effect, 100 complete control), approx. 10 d, read-out: Barnyardgrass plant response rating)?
Answer: Its pest or weed control at 125 g/ha is 90%.

Question: What about the pest or weed control at 31 g/ha ([5]; Postemergence, 31 g ai/ha, visual injury after approx. 10 d, 0 to 100 scale, 0 no effect, 100 complete control, read-out: Plant response rating, Barnyardgrass) of the same compound?
Answer: The pest or weed control at 31 g/ha was 80%.

Question: And the plant injury at 125 g/ha (corn (Zea mays); 125 g ai/ha, postemergence, visual injury on 0 to 100 scale (0 no effect, 100 complete control), approx. 10 d, read-out: Corn plant response rating)?
Answer: Its plant injury at 125 g/ha is 20%.

Question: What about the Corn plant response rating (crop injury, 0 = no effect, 100 = complete kill) at 31 g/ha (corn (Zea mays); Postemergence, 31 g ai/ha, visual injury after approx. 10 d, 0 to 100 scale, 0 no effect, 100 complete control) of the same compound?
Answer: The Corn plant response rating (crop injury, 0 = no effect, 100 = complete kill) at 31 g/ha was 0%.

Question: What about the pest or weed control at 125 g/ha ([6]; 125 g ai/ha, postemergence, visual injury on 0 to 100 scale (0 no effect, 100 complete control), approx. 10 d, read-out: Foxtail, Giant plant response rating) of the same compound?
Answer: The pest or weed control at 125 g/ha was 90%.

Question: What about the pest or weed control at 31 g/ha ([6]; Postemergence, 31 g ai/ha, visual injury after approx. 10 d, 0 to 100 scale, 0 no effect, 100 complete control, read-out: Plant response rating, Foxtail, Giant) of the same compound?
Answer: The pest or weed control at 31 g/ha was 70%.

Question: What about the pest or weed control at 125 g/ha ([7]; 125 g ai/ha, postemergence, visual injury on 0 to 100 scale (0 no effect, 100 complete control), approx. 10 d, read-out: Pigweed plant response rating) of the same compound?
Answer: Its pest or weed control at 125 g/ha is 0%.

Question: And the pest or weed control at 31 g/ha ([7]; Postemergence, 31 g ai/ha, visual injury after approx. 10 d, 0 to 100 scale, 0 no effect, 100 complete control, read-out: Plant response rating, Pigweed)?
Answer: Its pest or weed control at 31 g/ha is 0%.

Question: What about the pest or weed control at 125 g/ha (Kochia (Kochia scoparia) [8]; 125 g ai/ha, postemergence, visual injury on 0 to 100 scale (0 no effect, 100 complete control), approx. 10 d, read-out: Kochia plant response rating) of the same compound?
Answer: Its pest or weed control at 125 g/ha is 20%.

Question: And the pest or weed control at 31 g/ha (Kochia (Kochia scoparia) [8]; Postemergence, 31 g ai/ha, visual injury after approx. 10 d, 0 to 100 scale, 0 no effect, 100 complete control, read-out: Plant response rating, Kochia)?
Answer: The pest or weed control at 31 g/ha was 0%.

Question: What about the pest or weed control at 125 g/ha ([9]; 125 g ai/ha, postemergence, visual injury on 0 to 100 scale (0 no effect, 100 complete control), approx. 10 d, read-out: Blackgrass plant response rating) of the same compound?
Answer: Its pest or weed control at 125 g/ha is 50%.

Question: What about the pest or weed control at 31 g/ha ([9]; Postemergence, 31 g ai/ha, visual injury after approx. 10 d, 0 to 100 scale, 0 no effect, 100 complete control, read-out: Plant response rating, Blackgrass) of the same compound?
Answer: Its pest or weed control at 31 g/ha is 20%.

Question: And the pest or weed control at 125 g/ha ([10]; 125 g ai/ha, postemergence, visual injury on 0 to 100 scale (0 no effect, 100 complete control), approx. 10 d, read-out: Ragweed plant response rating)?
Answer: Its pest or weed control at 125 g/ha is 0%.

Question: And the pest or weed control at 31 g/ha ([10]; Postemergence, 31 g ai/ha, visual injury after approx. 10 d, 0 to 100 scale, 0 no effect, 100 complete control, read-out: Plant response rating, Ragweed)?
Answer: Its pest or weed control at 31 g/ha is 0%.

Question: What about the plant injury at 125 g/ha ([11]; 125 g ai/ha, postemergence, visual injury on 0 to 100 scale (0 no effect, 100 complete control), approx. 10 d, read-out: Wheat plant response rating) of the same compound?
Answer: The plant injury at 125 g/ha was 40%.

Question: What about the plant injury at 31 g/ha ([11]; Postemergence, 31 g ai/ha, visual injury after approx. 10 d, 0 to 100 scale, 0 no effect, 100 complete control, read-out: Plant response rating, Wheat) of the same compound?
Answer: Its plant injury at 31 g/ha is 0%.

Question: What about the pest or weed control at 31 g/ha ([12]; 31 g ai/ha, Preemergence) of the same compound?
Answer: Its pest or weed control at 31 g/ha is 0%.

Question: What about the pest or weed control at 125 g/ha [12, 18] of the same compound?
Answer: Its pest or weed control at 125 g/ha is 50%.

Question: What about the pest or weed control at 31 g/ha ([13]; 31 g ai/ha, Preemergence) of the same compound?
Answer: The pest or weed control at 31 g/ha was 90%.

Question: And the pest or weed control at 125 g/ha [13, 18]?
Answer: The pest or weed control at 125 g/ha was 100%.

Question: What about the pest or weed control at 31 g/ha ([14]; 31 g ai/ha, Preemergence) of the same compound?
Answer: Its pest or weed control at 31 g/ha is 100%.

Question: And the pest or weed control at 125 g/ha [14, 18]?
Answer: The pest or weed control at 125 g/ha was 100%.

Question: What about the pest or weed control at 31 g/ha ([15]; 31 g ai/ha, Preemergence) of the same compound?
Answer: Its pest or weed control at 31 g/ha is 0%.

Question: What about the pest or weed control at 125 g/ha [15, 18] of the same compound?
Answer: The pest or weed control at 125 g/ha was 20%.

Question: What about the pest or weed control at 31 g/ha (Kochia (Kochia scoparia) [16]; 31 g ai/ha, Preemergence) of the same compound?
Answer: The pest or weed control at 31 g/ha was 0%.

Question: What about the pest or weed control at 125 g/ha (Kochia (Kochia scoparia) [16]; [18]) of the same compound?
Answer: Its pest or weed control at 125 g/ha is 20%.

Question: What about the pest or weed control at 31 g/ha ([17]; 31 g ai/ha, Preemergence) of the same compound?
Answer: Its pest or weed control at 31 g/ha is 0%.

Question: And the pest or weed control at 125 g/ha [17, 18]?
Answer: The pest or weed control at 125 g/ha was 10%.
